Reference: ChEMBL document CHEMBL1132774, “Tetrahydroisoquinoline derivatives containing a benzenesulfonamide moiety as potent, selective human beta3 adrenergic receptor agonists” (Bioorg Med Chem Lett, 2000)

Experiments:
[1] = biological target: T1, Beta-2 adrenergic receptor (Homo sapiens, UniProt P07550); assay: Inhibitory activity against CHO cells expressing human Beta-2 adrenergic receptor with [125I]-iodocyanopindolol; format: cell-based
Target sequence in this assay (P07550 whole entry): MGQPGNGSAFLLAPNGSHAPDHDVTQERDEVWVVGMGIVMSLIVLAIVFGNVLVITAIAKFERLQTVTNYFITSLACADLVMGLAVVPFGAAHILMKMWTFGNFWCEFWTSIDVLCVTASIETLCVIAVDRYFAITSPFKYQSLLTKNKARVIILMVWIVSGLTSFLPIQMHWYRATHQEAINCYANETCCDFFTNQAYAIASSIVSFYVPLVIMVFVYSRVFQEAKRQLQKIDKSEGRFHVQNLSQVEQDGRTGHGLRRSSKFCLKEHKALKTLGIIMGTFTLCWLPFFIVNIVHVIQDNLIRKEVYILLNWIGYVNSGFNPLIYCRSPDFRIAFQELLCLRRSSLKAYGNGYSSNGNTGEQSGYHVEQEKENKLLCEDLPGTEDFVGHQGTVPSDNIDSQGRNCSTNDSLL

[2] = biological target: T2, Beta-1 adrenergic receptor (Homo sapiens, UniProt P08588); assay: Compound was evaluated for its inhibitory activity against human beta-1 adrenergic receptor (AR); format: functional
Target sequence in this assay (P08588 whole entry): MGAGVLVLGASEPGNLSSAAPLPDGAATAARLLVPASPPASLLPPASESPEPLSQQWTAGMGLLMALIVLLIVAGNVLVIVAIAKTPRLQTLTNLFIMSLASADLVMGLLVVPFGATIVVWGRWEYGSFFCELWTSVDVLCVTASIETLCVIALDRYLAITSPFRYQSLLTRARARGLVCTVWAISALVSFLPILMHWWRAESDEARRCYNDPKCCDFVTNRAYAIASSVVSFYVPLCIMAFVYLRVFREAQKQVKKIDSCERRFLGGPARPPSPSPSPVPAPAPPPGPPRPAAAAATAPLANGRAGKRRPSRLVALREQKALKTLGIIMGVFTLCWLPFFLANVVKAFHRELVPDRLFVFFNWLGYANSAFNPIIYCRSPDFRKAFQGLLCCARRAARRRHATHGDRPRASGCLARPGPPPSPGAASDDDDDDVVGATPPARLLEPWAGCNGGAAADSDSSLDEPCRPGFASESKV

[3] = biological target: T3, Beta-3 adrenergic receptor (Homo sapiens, UniProt P13945); assay: Adenylyl cyclase activation at human beta-3 adrenergic receptor (AR); format: functional; set-up: concentration or dose not given beside the values
Target sequence in this assay (P13945 whole entry, looked up): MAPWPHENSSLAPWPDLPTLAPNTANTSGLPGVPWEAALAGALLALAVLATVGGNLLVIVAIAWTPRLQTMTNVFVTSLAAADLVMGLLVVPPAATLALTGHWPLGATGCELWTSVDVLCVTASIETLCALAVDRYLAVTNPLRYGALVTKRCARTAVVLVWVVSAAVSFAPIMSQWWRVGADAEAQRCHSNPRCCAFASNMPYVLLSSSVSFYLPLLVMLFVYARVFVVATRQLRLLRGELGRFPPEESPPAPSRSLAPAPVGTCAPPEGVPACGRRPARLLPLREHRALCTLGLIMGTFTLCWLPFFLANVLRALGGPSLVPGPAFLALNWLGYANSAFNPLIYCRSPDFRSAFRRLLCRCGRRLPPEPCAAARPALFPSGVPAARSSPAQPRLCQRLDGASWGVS

[4] = biological target: T2, Beta-1 adrenergic receptor; assay: Compound was evaluated for its inhibitory activity against CHO cells expressing the cloned human beta-1 adrenergic receptor (AR) in the presence of [125I]iodocyanopindolol; format: functional, cell-based
Target sequence in this assay (P08588 whole entry): as the sequence (P08588 whole entry) above

[5] = biological target: T3, Beta-3 adrenergic receptor; assay: Inhibitory activity against human beta-3 adrenergic receptor (AR); format: functional
Target sequence in this assay (P13945 whole entry): as the sequence (P13945 whole entry, looked up) above

[6] = biological target: T1, Beta-2 adrenergic receptor; assay: Compound was evaluated for its inhibitory activity against human beta-2 adrenergic receptor (AR); format: functional
Target sequence in this assay (P07550 whole entry): as the sequence (P07550 whole entry) above

[7] = biological target: T2, Beta-1 adrenergic receptor; assay: (§1) Compound was evaluated for its adenylyl cyclase activation at human beta-1 adrenergic receptor (AR); format: functional; set-up: concentration or dose not given beside the values
Target sequence in this assay (P08588 whole entry, looked up): as the sequence (P08588 whole entry) above

[8] = biological target: T2, Beta-1 adrenergic receptor; assay: Compound was evaluated for its inhibitory activity against CHO cells expressing the cloned human beta-1 adrenergic receptor (AR) in the presence of [125I]-iodocyanopindolol; format: cell-based
Target sequence in this assay (P08588 whole entry): as above

[9] = biological target: T1, Beta-2 adrenergic receptor; assay: Compound was evaluated for its inhibitory activity against CHO cells expressing the cloned human beta-2 adrenergic receptor (AR) in the presence of [125I]-iodocyanopindolol; format: functional, cell-based
Target sequence in this assay (P07550 whole entry): as the sequence (P07550 whole entry) above

[10] = biological target: T2, Beta-1 adrenergic receptor; assay: Compound was evaluated for its inhibitory activity against CHO cells expressing the cloned human Beta-1 adrenergic receptor in the presence of [125I]iodocyanopindolol; format: cell-based
Target sequence in this assay (P08588 whole entry): as the sequence (P08588 whole entry) above

[11] = biological target: T3, Beta-3 adrenergic receptor; assay: Compound was evaluated for its inhibitory activity against human beta-3 adrenergic receptor (AR) at a concentration of 100 nM; format: functional
Target sequence in this assay (P13945 whole entry): as the sequence (P13945 whole entry, looked up) above

[12] = biological target: T2, Beta-1 adrenergic receptor; assay: as §1
Target sequence in this assay (P08588 whole entry, looked up): as the sequence (P08588 whole entry) above

[13] = biological target: T1, Beta-2 adrenergic receptor; assay: Compound was evaluated for its adenylyl cyclase activation at human beta-2 adrenergic receptor (AR); format: functional
Target sequence in this assay (P07550 whole entry, looked up): as the sequence (P07550 whole entry) above

| Compound | IC50 [1] [nM] | EC50 [2] [nM] | Activation [3] [%] | IC50 [4] [nM] | EC50 [5] [nM] | EC50 [6] [nM] | Activation [7] [%] | IC50 [8] [nM] | IC50 [9] [nM] | IC50 [10] [nM] | EC50 [11] [nM] | Activation [12] [%] | Activation [13] [%] |
| --- | --- | --- | --- | --- | --- | --- | --- | --- | --- | --- | --- | --- | --- |
| CCCCCCNC(=O)Nc1ccc(S(=O)(=O)Nc2cccc(-c3cccc(CC4NCCc5cc(O)c(O)cc54)c3)c2)cc1 (stereo not given) | 710 | > 10000 | 62 | 530 | 360 | 2700 | 22 | – | – | – | – | – | – |
| COc1cc(-c2ccc(CC3NCCc4cc(O)c(O)cc43)cc2)cc(OC)c1OC (stereo not given) | 760 | 6100 | 77 | – | 27 | 1500 | 45 | 1800 | – | – | – | – | – |
| CCCCCCNC(=O)Nc1ccc(S(=O)(=O)Nc2ccc(-c3ccc(CC4NCCc5cc(O)c(O)cc54)cc3)cc2)cc1 (stereo not given) | – | 1800 | 91 | 3000 | 6 | 340 | 44 | – | 3400 | – | – | – | – |
| CCCCCCNC(=O)Nc1ccc(S(=O)(=O)Nc2ccc(CC3NCCc4cc(O)c(O)cc43)cc2)cc1 (stereo not given) | 200 | – | 82 | – | 66 | – | – | – | – | 1200 | – | – | – |
| CCCCCCNC(=O)Nc1ccc(S(=O)(=O)Nc2cccc(-c3ccc(OCC4NCCc5cc(O)c(O)cc54)cc3)c2)cc1 (stereo not given) | 990 | – | – | – | – | – | – | – | – | 6500 | 10 | – | – |
| CCCCCCNC(=O)Nc1ccc(S(=O)(=O)Nc2ccc3cc(CC4NCCc5cc(O)c(O)cc54)ccc3c2)cc1 (stereo not given) | 300 | – | – | – | – | – | – | – | – | 1000 | 7 | – | – |
| COc1cc(C[C@@H]2NCCc3cc(O)c(O)cc32)cc(OC)c1OC [TRETOQUINOL] | – | – | 92 | – | 1.7 | – | – | – | – | – | – | – | – |
| CCCCCCNC(=O)Nc1ccc(S(=O)(=O)Nc2ccc3cc(OCC4NCCc5cc(O)c(O)cc54)ccc3c2)cc1 (stereo not given) | > 100000 | – | 72 | – | 78 | – | – | – | – | 80000 | – | – | – |
| CCCCCCNC(=O)Nc1ccc(S(=O)(=O)Nc2cccc(-c3ccc(CC4NCCc5cc(O)c(O)cc54)cc3)c2)cc1 (stereo not given) | – | 970 | 100 | 10000 | 140 | 1300 | 69 | – | 32000 | – | – | – | – |
| CCCCCCNC(=O)Nc1ccc(S(=O)(=O)Nc2ccc(-c3ccc(OCC4NCCc5cc(O)c(O)cc54)cc3)cc2)cc1 (stereo not given) | – | 2400 | 72 | – | 16 | 580 | – | – | 160 | 2000 | – | 23 | – |
| CCCCCCNC(=O)Nc1ccc(S(=O)(=O)Nc2ccc(-c3cccc(CC4NCCc5cc(O)c(O)cc54)c3)cc2)cc1 (stereo not given) | 100000 | > 1000 | 64 | 100000 | 600 | > 1000 | 12 | – | – | – | – | – | 33 |
| CCCCCCNC(=O)Nc1ccc(S(=O)(=O)Nc2ccc(OCC3NCCc4cc(O)c(O)cc43)cc2)cc1 (stereo not given) | 300 | – | – | – | – | – | – | – | – | 1000 | 4 | – | – |
| COc1c(I)cc(CC2NCCc3nc(N)sc32)cc1I (stereo not given) | 56 | – | 36 | – | 800 | – | – | – | – | – | – | – | – |
